Experiments:
Details in all cases: 72 h
Caco-2 [1] = test: cell viability relative to DMSO; higher = less toxic
Calu-3 [2] = test: as above
HepG2 [3] = test: as above
U2OS [4] = test: as above
Vero E6 [5] = test: as above
Caco-2 [6] = test: relative viability EC50 (midpoint between 100% and the lowest measured viability); higher = less toxic
Calu-3 [7] = test: as above
U2OS [8] = test: as above
Vero E6 [9] = test: as above
Caco-2 [10] = test: drug sensitivity score (DSS) for viability; higher = more toxic; extreme values may be limits of the assay
Calu-3 [11] = test: as above
HepG2 [12] = test: as above
U2OS [13] = test: as above
Vero E6 [14] = test: as above

Row | SMILES | cell viability (Caco-2 [1]; 1 nM) [%] | cell viability (Caco-2 [1]; 10 nM) [%] | cell viability (Caco-2 [1]; 100 nM) [%] | cell viability (Caco-2 [1]; 1000 nM) [%] | cell viability (Caco-2 [1]; 10000 nM) [%] | cell viability (Calu-3 [2]; 1 nM) [%] | cell viability (Calu-3 [2]; 10 nM) [%] | cell viability (Calu-3 [2]; 100 nM) [%] | cell viability (Calu-3 [2]; 1000 nM) [%] | cell viability (Calu-3 [2]; 10000 nM) [%] | cell viability (HepG2 [3]; 1 nM) [%] | cell viability (HepG2 [3]; 10 nM) [%] | cell viability (HepG2 [3]; 100 nM) [%] | cell viability (HepG2 [3]; 1000 nM) [%] | cell viability (HepG2 [3]; 10000 nM) [%] | cell viability (U2OS [4]; 1 nM) [%] | cell viability (U2OS [4]; 10 nM) [%] | cell viability (U2OS [4]; 100 nM) [%] | cell viability (U2OS [4]; 1000 nM) [%] | cell viability (U2OS [4]; 10000 nM) [%] | cell viability (Vero E6 [5]; 1 nM) [%] | cell viability (Vero E6 [5]; 10 nM) [%] | cell viability (Vero E6 [5]; 100 nM) [%] | cell viability (Vero E6 [5]; 1000 nM) [%] | cell viability (Vero E6 [5]; 10000 nM) [%] | relative viability EC50 (Caco-2 [6]) [µM] | relative viability EC50 (Calu-3 [7]) [µM] | relative viability EC50 (U2OS [8]) [µM] | relative viability EC50 (Vero E6 [9]) [µM] | drug sensitivity score (Caco-2 [10]) | drug sensitivity score (Calu-3 [11]) | drug sensitivity score (HepG2 [12]) | drug sensitivity score (U2OS [13]) | drug sensitivity score (Vero E6 [14])
1 | CC(C)C[C@@H](C(=O)N[C@@H](Cc1ccc(OCc2ccccc2)cc1)C(=O)NC(C)(C)C)N(C)Cc1ccc(C(C)(C)C)cc1 | 88.8 | 95.9 | 94.1 | 100 | 87.5 | 93.4 | 105 | 97.5 | 111 | 87.8 | 107 | 101 | 93.5 | 99.1 | 68 | 97.4 | 101 | 97.5 | 101 | 85.5 | 103 | 103 | 106 | 97.8 | 95.7 | > 10 | > 10 | > 10 | > 10 | 0 | 0 | 1.6 | 0.1 | 0
2 | COCc1nnc(N2CC(Oc3ccc(F)cc3Cl)C2)n1-c1ccc(OC)nc1 | 88.5 | 105 | 102 | 105 | 97.5 | 92.8 | 103 | 101 | 104 | 113 |  |  |  |  |  | 93.3 | 93.6 | 95.6 | 103 | 97.4 | 97.8 | 93.1 | 101 | 90.9 | 106 | > 10 | > 10 | > 10 | > 10 | 0 | 0 |  | 0 | 0
3 | Nc1nc(NCCNc2ncc(-n3ccnc3)c(-c3ccc(Cl)cc3Cl)n2)ccc1[N+](=O)[O-] | 96.7 | 99.9 | 100 | 111 | 111 | 96.3 | 98.1 | 104 | 111 | 112 |  |  |  |  |  | 96.9 | 101 | 96.7 | 103 | 110 | 96.1 | 98 | 94.2 | 97.1 | 106 | > 10 | > 10 | > 10 | > 10 | 0 | 0 |  | 0 | 0
4 | NCC(=O)Nc1ccc(-n2nc(C(F)(F)F)cc2-c2ccc3c(ccc4ccccc43)c2)cc1 [AR-12] | 96.8 | 91 | 87.9 | 96.8 | 92.1 | 103 | 98.2 | 98.9 | 102 | 45.4 | 110 | 96.1 | 103 | 105 | 71.5 | 89.7 | 98.9 | 95 | 100 | 89 | 97.4 | 94.3 | 95.7 | 80.4 | 68.2 | > 10 | 3.39 | > 10 |  | 0 | 2.7 | 0.9 | 0 | 3.5
5 | Cc1ccccc1NC(=O)Nc1ccc(CC(=O)N(C)[C@@H](CC(C)C)C(=O)NCC[C@H](NC(=O)[C@@H]2CCCN2S(=O)(=O)c2cc(Cl)cc(Cl)c2)C(=O)O)cc1 [BIO-5192] | 98 | 97.3 | 90.5 | 99.5 | 96.8 | 104 | 102 | 96.5 | 108 | 104 |  |  |  |  |  | 102 | 96.2 | 95.1 | 105 | 97.6 | 98.3 | 93.9 | 93.1 | 96.7 | 109 | > 10 | > 10 | > 10 | > 10 | 0 | 0 |  | 0 | 0
6 | CNC(=O)[C@H]1O[C@@H](n2cnc3c(NCc4cccc(I)c4)ncnc32)[C@H](O)[C@@H]1O [IB-MECA] | 112 | 96.2 | 99.8 | 105 | 93.3 | 96.3 | 98.3 | 93.4 | 109 | 85.3 | 107 | 68.7 | 98.3 | 68.8 | 88.8 | 101 | 105 | 102 | 106 | 95.8 | 103 | 97.1 | 99.8 | 97 | 102 | > 10 | > 10 | > 10 | > 10 | 0 | 0.1 | 3.3 | 0 | 0
7 | CN(C[C@@H]1COCCO1)S(=O)(=O)Nc1ccc2ccc3ncc(-c4cnn(C)c4)cc3c(=O)c2c1 [MK-2461] | 103 | 97.9 | 94.5 | 99.7 | 64.5 | 81.9 | 89 | 84 | 90.7 | 93.9 | 96.6 | 96.6 | 96.5 | 91.4 | 58.6 | 89.1 | 98.8 | 99.2 | 96.9 | 64.1 | 103 | 97.7 | 97.3 | 93.2 | 59.7 |  | > 10 |  |  | 1.7 | 0 | 3.5 | 2.2 | 3.1
8 | COc1ccccc1N1CCN(CCCCN2C(=O)CCC2=O)CC1 [MM77] | 92.4 | 102 | 83.8 | 102 | 106 | 104 | 100 | 96.6 | 114 | 107 |  |  |  |  |  | 100 | 101 | 94.9 | 106 | 97.2 | 94.5 | 93.4 | 92.7 | 94 | 110 | > 10 | > 10 | > 10 | > 10 | 0 | 0 |  | 0 | 0
9 | COc1ccccc1S(=O)(=O)Nc1ccc2c(c1)CN(C)C(=O)N2 [PFI-1] | 102 | 102 | 107 | 94 | 75.7 | 102 | 92.6 | 102 | 88 | 58.2 | 108 | 103 | 94.3 | 94.4 | 50.1 |  |  |  |  |  | 102 | 102 | 96.2 | 81.5 | 16.3 | > 10 |  |  | 1.65 | 1.7 | 3.9 | 3.6 |  | 7.6
10 | CNC(=O)COC(=O)NCCC1CCN(c2cccc(C)n2)CC1 [SA-47] | 90.7 | 101 | 97.7 | 99.3 | 94 | 98.4 | 101 | 105 | 103 | 105 |  |  |  |  |  | 92.8 | 101 | 103 | 97.7 | 99.2 | 85.7 | 97.6 | 90.7 | 92.7 | 110 | > 10 | > 10 | > 10 | > 10 | 0 | 0 |  | 0 | 0
11 | CCc1cccc(CC)c1NC1=NCCN1 [ST-91] | 102 | 101 | 96.2 | 93.4 | 100 | 104 | 90.2 | 96.6 | 89.6 | 115 |  |  |  |  |  | 103 | 98.7 | 104 | 94.8 | 99 | 98.9 | 97.1 | 102 | 98.3 | 93.5 | > 10 | > 10 | > 10 | > 10 | 0 | 0 |  | 0 | 0
12 | Cc1cc(C)nc(SCC(=O)Nc2ncc(Cc3cccc4ccccc34)s2)n1 [SirReal-2] | 104 | 101 | 93.4 | 99.6 | 96.6 | 97 | 95.7 | 95.1 | 91 | 102 |  |  |  |  |  | 94.7 | 103 | 96.6 | 101 | 92.8 |  |  |  |  |  | > 10 | > 10 | > 10 |  | 0 | 0 |  | 0 | 
13 | C=CC(=O)O [acrylate] |  |  |  |  |  |  |  |  |  |  |  |  |  |  |  |  |  |  |  |  |  |  |  |  |  |  |  |  |  |  | 0 | 0 | 0 | 0
14 | CC(=O)[C@@]12O[C@](C)(c3ccccc3)O[C@@H]1C[C@H]1[C@@H]3CCC4=CC(=O)CC[C@]4(C)[C@H]3CC[C@@]12C [algestone-acetophenide] | 104 | 94.2 | 97.5 | 100 | 78.5 | 105 | 100 | 96.3 | 109 | 86.4 | 98.3 | 108 | 102 | 103 | 71.7 | 99.7 | 95.2 | 99.3 | 98.4 | 91.8 | 101 | 96.6 | 87.5 | 92.3 | 102 | > 10 | > 10 | > 10 | > 10 | 0.7 | 0 | 1 | 0 | 0
15 | CN(C)CCc1c[nH]c2ccc(CS(=O)(=O)N3CCCC3)cc12 [almotriptan] | 92.9 | 97.9 | 99.9 | 109 | 106 | 98.8 | 103 | 108 | 97.8 | 106 |  |  |  |  |  | 101 | 104 | 101 | 98.6 | 100 |  |  |  |  |  | > 10 | > 10 | > 10 |  | 0 | 0 |  | 0 | 
16 | C1=C2CCCN[C@H]2[C@@H]2C[C@H]1[C@H]1CCCCN1C2 [aloperine] | 96.4 | 108 | 104 | 106 | 94.4 | 91.1 | 99.2 | 90.7 | 85 | 83.1 |  |  |  |  |  | 96.8 | 102 | 92.8 | 100 | 94.1 | 102 | 100 | 104 | 99.4 | 98.1 | > 10 | > 10 | > 10 | > 10 | 0 | 1.4 |  | 0 | 0
